Results from patent US20240082235A1, “METHOD FOR TREATING OR INHIBITING CYTOMEGALOVIRUS INFECTION USING SMALL MOLECULES TARGETING PROTEIN PHOSPHATASE 1” (HOWARD UNIVERSITY, priority 2020, published 2024).

Columns and labels:
[1] = biological target: PP1 with peptides containing an RVxF sequence (Homo sapiens, UniProt P62136); conditions: in vitro; Ammosova et al. 2012, 2014; cited from earlier work
[2] = biological target: T1, PP1-cdNIPP1 RATA interaction (Homo sapiens, UniProt P62136); experiment: Split NanoBit protein:protein interaction assay, WT PP1 with RVxF-mutant cdNIPP1; type: binding; conditions: FIG. 4B, cdNIPP1 with RVxF mutation
T1 construct: NanoBiT large bit (LgBiT)
T1 sequence (P62136 whole entry): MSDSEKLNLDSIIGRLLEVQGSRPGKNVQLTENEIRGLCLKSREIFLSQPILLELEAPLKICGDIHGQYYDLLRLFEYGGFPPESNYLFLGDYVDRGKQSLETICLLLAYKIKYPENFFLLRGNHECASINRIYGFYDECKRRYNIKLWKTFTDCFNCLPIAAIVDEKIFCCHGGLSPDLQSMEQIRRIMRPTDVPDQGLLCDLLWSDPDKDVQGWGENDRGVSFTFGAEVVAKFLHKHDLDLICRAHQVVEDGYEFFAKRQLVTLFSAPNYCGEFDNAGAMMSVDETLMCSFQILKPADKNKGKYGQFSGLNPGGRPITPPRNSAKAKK

[3] = biological target: PP1 (Homo sapiens, UniProt P62136); conditions: SPR; Lin et al. 2017; read-out: KD of binding to PP1; cited from earlier work
PP1, sequence (P62136 whole entry): as above

[4] = test system: CMV immediate early proteins; experiment: Expression of CMV immediate early proteins in infected cells; type: cell-based, human cytomegalovirus; conditions: FIG. 5B
[5] = biological target: T2, PP1-cdNIPP1 interaction (Homo sapiens, UniProt P62136); experiment: Split NanoBit protein:protein interaction assay, WT PP1 with WT cdNIPP1; type: binding; conditions: FIG. 4B
T2 construct: NanoBiT large bit (LgBiT)
T2 sequence (P62136 whole entry): as above

[6] = test system: CMV IE1, IE2 and UL32 mRNA; experiment: Viral mRNA expression by RT-qPCR in infected human foreskin fibroblasts; type: cell-based, human cytomegalovirus; conditions: fold-change compared to infected cells treated with vehicle only, FIG. 5C
[7] = test system: CMV; experiment: Plaque assay of human foreskin fibroblasts infected with CMV; type: cell-based, human cytomegalovirus; conditions: percentage compared to untreated control, FIG. 5A

PP1 with peptides containing an RVxF sequence, sequence (P62136 whole entry): as above

CCNC(=O)NC(=O)C(C)OC(=O)c1c2c(nc3ccccc13)/C(=C/c1ccc(OC)c(OC)c1)CC2 (stereo not shown) [1E7-03]
Interaction of PP1 with peptides containing an RVxF sequence [1]: disrupted the interaction of PP1 with peptides containing an RVxF sequence
Effect on PP1-cdNIPP1 RATA interaction [2]: did not have an effect
Kd [3]: 6.2 µM
Expression of CMV immediate early proteins [4]: reduced
Effect on PP1-cdNIPP1 interaction [5]: inhibited the PP1-cdNIPP1 interaction
Viral mRNA expression (IE1, IE2, UL32) [6]: no effect on viral transcription
Inhibition of CMV replication [7]: concentration-dependent inhibition of CMV replication
